The target of one test is T1, calcitonin receptor (Rattus norvegicus, UniProt P32214).
T1 sequence (P32214 25-516): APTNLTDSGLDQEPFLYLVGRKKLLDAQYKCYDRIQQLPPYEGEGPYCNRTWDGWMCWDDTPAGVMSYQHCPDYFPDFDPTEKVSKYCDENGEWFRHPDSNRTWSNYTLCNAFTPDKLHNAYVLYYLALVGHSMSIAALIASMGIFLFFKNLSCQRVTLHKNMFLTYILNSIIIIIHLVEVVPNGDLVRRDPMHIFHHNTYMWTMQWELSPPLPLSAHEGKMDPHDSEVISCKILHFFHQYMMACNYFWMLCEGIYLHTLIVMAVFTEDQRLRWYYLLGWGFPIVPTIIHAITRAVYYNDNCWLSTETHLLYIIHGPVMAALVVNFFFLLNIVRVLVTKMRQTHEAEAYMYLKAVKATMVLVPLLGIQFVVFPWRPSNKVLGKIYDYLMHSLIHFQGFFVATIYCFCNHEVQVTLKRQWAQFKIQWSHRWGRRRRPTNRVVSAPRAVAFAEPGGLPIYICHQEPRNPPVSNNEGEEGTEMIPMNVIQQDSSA
Put plainly: calcitonin receptor binding assay (rCalcitonin RBA). The note with it: Table 6; read-out: CT receptor binding.

The target in the next test is adrenomedullin receptor (Homo sapiens, UniProt O60895+Q16602). Put plainly: adrenomedullin (ADM) receptor binding assay. The note with it: Table 6.
Sequence of adrenomedullin receptor (Q16602 23-461): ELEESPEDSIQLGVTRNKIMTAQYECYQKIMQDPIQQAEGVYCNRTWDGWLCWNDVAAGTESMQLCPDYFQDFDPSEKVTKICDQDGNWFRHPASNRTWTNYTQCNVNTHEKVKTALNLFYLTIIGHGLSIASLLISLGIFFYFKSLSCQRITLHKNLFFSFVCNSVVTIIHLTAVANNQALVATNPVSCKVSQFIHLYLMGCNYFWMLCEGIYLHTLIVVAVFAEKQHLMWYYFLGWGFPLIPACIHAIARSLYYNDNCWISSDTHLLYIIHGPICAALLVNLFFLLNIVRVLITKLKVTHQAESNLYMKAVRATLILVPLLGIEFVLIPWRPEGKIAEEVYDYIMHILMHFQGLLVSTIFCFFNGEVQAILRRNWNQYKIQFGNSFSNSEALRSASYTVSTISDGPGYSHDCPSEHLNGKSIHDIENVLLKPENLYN
Sequence of adrenomedullin receptor (O60895 43-175): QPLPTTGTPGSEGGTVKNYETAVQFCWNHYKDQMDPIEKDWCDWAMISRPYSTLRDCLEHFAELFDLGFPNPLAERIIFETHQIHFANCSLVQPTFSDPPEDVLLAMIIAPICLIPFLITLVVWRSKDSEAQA

Bridge positions count the residues as written; N and C are the ends. Ends that are not written are not given here. Peptide text beside a SMILES is read from it.

Regarding “TQAQLLRVGCNTATCQVQNLSHRLWQLMGPAGRQDSAPVDPSSPHSY-NH2 (disulfide 10-15 (inferred)) [compound 21]”, the results for the IC50 on calcitonin receptor and at adrenomedullin receptor were 0.017 µM and 0.047 µM, respectively.
For `CSCC[C@H](NC(=O)[C@H](CC(C)C)NC(=O)[C@H](CCC(N)=O)NC(=O)[C@H](Cc1c[nH]c2ccccc12)NC(=O)[C@H](CC(C)C)NC(=O)[C@H](CCCNC(=N)N)NC(=O)[C@H](Cc1c[nH]cn1)NC(=O)[C@H](CO)NC(=O)[C@H](CC(C)C)NC(=O)[C@H](CC(N)=O)NC(=O)[C@H](CCC(N)=O)NC(=O)[C@@H](NC(=O)[C@H](CCC(N)=O)NC(=O)[C@@H]1CSSC[C@H](NC(=O)CN)C(=O)N[C@@H](C(C)C)C(=O)N[C@@H](CC(C)C)C(=O)NCC(=O)N[C@@H]([C@@H](C)O)C(=O)N1)C(C)C)C(=O)NCC(=O)N1CCC[C@H]1C(=O)N[C@@H](C)C(=O)NCC(=O)N[C@@H](CCCNC(=N)N)C(=O)N[C@@H](CCC(N)=O)C(=O)N[C@@H](CC(=O)O)C(=O)N[C@@H](CO)C(=O)N[C@@H](C)C(=O)N1CCC[C@H]1C(=O)N[C@H](C(=O)N[C@@H](CC(=O)O)C(=O)N1CCC[C@H]1C(=O)N[C@@H](CO)C(=O)N[C@@H](CO)C(=O)N1CCC[C@H]1C(=O)N[C@@H](Cc1c[nH]cn1)C(=O)N[C@@H](CO)C(=O)N[C@@H](Cc1ccc(O)cc1)C(N)=O)C(C)C` [compound 11] (H-GCVLGTCQVQNLSHRLWQLMGPAGRQDSAPVDPSSPHSY-NH2; disulfide 2-7 (inferred); N-terminus assumed) the same measures were 0.027 µM and 0.011 µM.
Taken in the same sequence, the figures for `CSCC[C@H](NC(=O)[C@H](CC(C)C)NC(=O)[C@H](CCC(N)=O)NC(=O)[C@H](Cc1c[nH]c2ccccc12)NC(=O)[C@H](CC(C)C)NC(=O)[C@H](CCCNC(=N)N)NC(=O)[C@H](Cc1c[nH]cn1)NC(=O)[C@H](CO)NC(=O)[C@H](CC(C)C)NC(=O)[C@H](CC(N)=O)NC(=O)[C@H](CCC(N)=O)NC(=O)[C@@H](NC(=O)[C@H](CCC(N)=O)NC(=O)[C@@H]1CSSC[C@H](N)C(=O)N[C@@H](C(C)C)C(=O)N[C@@H](CC(C)C)C(=O)NCC(=O)N[C@@H]([C@@H](C)O)C(=O)N1)C(C)C)C(=O)NCC(=O)N1CCC[C@H]1C(=O)N[C@@H](C)C(=O)NCC(=O)N[C@@H](CCCNC(=N)N)C(=O)N[C@@H](CCC(N)=O)C(=O)N[C@@H](CC(=O)O)C(=O)N[C@@H](CO)C(=O)N[C@@H](C)C(=O)N1CCC[C@H]1C(=O)N[C@H](C(=O)N[C@@H](CC(=O)O)C(=O)N1CCC[C@H]1C(=O)N[C@@H](CO)C(=O)N[C@@H](CO)C(=O)N1CCC[C@H]1C(=O)N[C@@H](Cc1c[nH]cn1)C(=O)N[C@@H](CO)C(=O)N[C@@H](Cc1ccc(O)cc1)C(N)=O)C(C)C` [compound 12] (H-CVLGTCQVQNLSHRLWQLMGPAGRQDSAPVDPSSPHSY-NH2; disulfide 1-6 (inferred); N-terminus assumed) were 0.198 µM and 0.018 µM.
For “H-GMVLGTMQVQNLSHRLWQLMGPAGRQDSAPVDPSSPHSY-NH2 [compound 26]” the same measures were greater than 1 µM and 0.037 µM.
Turning to `CC(C)C[C@H](NC(=O)[C@H](CCC(N)=O)NC(=O)[C@H](Cc1c[nH]c2ccccc12)NC(=O)[C@H](CC(C)C)NC(=O)[C@H](CCCNC(=N)N)NC(=O)[C@H](Cc1c[nH]cn1)NC(=O)[C@H](CO)NC(=O)[C@H](CC(C)C)NC(=O)[C@H](CC(N)=O)NC(=O)[C@H](CCC(N)=O)NC(=O)[C@@H](NC(=O)[C@H](CCC(N)=O)NC(=O)[C@@H]1CSSC[C@H](N)C(=O)N[C@@H](C(C)C)C(=O)N[C@@H](CC(C)C)C(=O)NCC(=O)N[C@@H]([C@@H](C)O)C(=O)N1)C(C)C)C(=O)N[C@@H](CCCNC(=N)N)C(=O)N[C@@H](CCC(N)=O)C(=O)N[C@@H](CCC(=O)O)C(=O)N[C@@H](CO)C(=O)N[C@@H](C)C(=O)N1CCC[C@H]1C(=O)N[C@H](C(=O)N[C@@H](CCC(=O)O)C(=O)N1CCC[C@H]1C(=O)N[C@@H](CO)C(=O)N[C@@H](CO)C(=O)N1CCC[C@H]1C(=O)N[C@@H](Cc1c[nH]cn1)C(=O)N[C@@H](CO)C(=O)N[C@@H](Cc1ccc(O)cc1)C(N)=O)C(C)C` [compound 19] (H-CVLGTCQVQNLSHRLWQLRQESAPVEPSSPHSY-NH2; disulfide 1-6 (inferred); N-terminus assumed), the IC50 was 0.247 µM on calcitonin receptor and no less than 1 µM on adrenomedullin receptor.
For “TQAQLLRVGCVLGTCQVQNLSHRLWQLRQDSAPVDPSSPHSY-NH2 (disulfide 10-15 (inferred)) [compound 16]” the same measures were 0.022 µM and no less than 1 µM.
In the case of `CSCC[C@H](NC(=O)[C@H](CC(C)C)NC(=O)[C@H](CCC(N)=O)NC(=O)[C@H](Cc1c[nH]c2ccccc12)NC(=O)[C@H](CC(C)C)NC(=O)[C@H](CCCNC(=N)N)NC(=O)[C@H](Cc1c[nH]cn1)NC(=O)[C@H](CO)NC(=O)[C@H](CC(C)C)NC(=O)[C@H](CC(N)=O)NC(=O)[C@H](CCC(N)=O)NC(=O)[C@@H](NC(=O)[C@H](CCC(N)=O)NC(=O)[C@@H]1CSSC[C@H](NC(=O)CNC(=O)[C@@H](NC(=O)[C@@H](N)CCCNC(=N)N)C(C)C)C(=O)N[C@@H](C(C)C)C(=O)N[C@@H](CC(C)C)C(=O)NCC(=O)N[C@@H]([C@@H](C)O)C(=O)N1)C(C)C)C(=O)NCC(=O)N1CCC[C@H]1C(=O)N[C@@H](C)C(=O)NCC(=O)N[C@@H](CCCNC(=N)N)C(=O)N[C@@H](CCC(N)=O)C(=O)N[C@@H](CC(=O)O)C(=O)N[C@@H](CO)C(=O)N[C@@H](C)C(=O)N1CCC[C@H]1C(=O)N[C@H](C(=O)N[C@@H](CC(=O)O)C(=O)N1CCC[C@H]1C(=O)N[C@@H](CO)C(=O)N[C@@H](CO)C(=O)N1CCC[C@H]1C(=O)N[C@@H](Cc1c[nH]cn1)C(=O)N[C@@H](CO)C(=O)N[C@@H](Cc1ccc(O)cc1)C(N)=O)C(C)C` [compound 10], the IC50 came out at 0.055 µM on calcitonin receptor and 0.0071 µM at adrenomedullin receptor.
Turning to `CC(C)C[C@H](NC(=O)[C@H](CCC(N)=O)NC(=O)[C@H](Cc1c[nH]c2ccccc12)NC(=O)[C@H](CC(C)C)NC(=O)[C@H](CCCNC(=N)N)NC(=O)[C@H](Cc1c[nH]cn1)NC(=O)[C@H](CO)NC(=O)[C@H](CC(C)C)NC(=O)[C@H](CC(N)=O)NC(=O)[C@H](CCC(N)=O)NC(=O)[C@@H](NC(=O)[C@H](CCC(N)=O)NC(=O)[C@@H]1CSSC[C@H](NC(=O)CN)C(=O)N[C@@H](CO)C(=O)N[C@@H](CC(N)=O)C(=O)N[C@@H](CC(C)C)C(=O)N[C@@H](CO)C(=O)N[C@@H]([C@@H](C)O)C(=O)N1)C(C)C)C(=O)N[C@@H](CCCNC(=N)N)C(=O)N[C@@H](CCC(N)=O)C(=O)N[C@@H](CC(=O)O)C(=O)N[C@@H](CO)C(=O)N[C@@H](C)C(=O)N1CCC[C@H]1C(=O)N[C@H](C(=O)N[C@@H](CCC(=O)O)C(=O)N1CCC[C@H]1C(=O)N[C@@H](CO)C(=O)N[C@@H](CO)C(=O)N1CCC[C@H]1C(=O)N[C@@H](Cc1c[nH]cn1)C(=O)N[C@@H](CO)C(=O)N[C@@H](Cc1ccc(O)cc1)C(N)=O)C(C)C` [compound 38] (H-GCSNLSTCQVQNLSHRLWQLRQDSAPVEPSSPHSY-NH2; disulfide 2-8 (inferred); N-terminus assumed), the IC50 at calcitonin receptor came to 0.017 µM.

For the origin of these results see patent publication US7928060B2, “Amylin family polypeptide-6 (AFP-6) analogs and methods of making and using them” (Amylin Pharmaceuticals, Inc., priority 2004, dated 2011).
